Assay in data set [1]: not given
This is another data set of the same source.

Assay in data set [2]: not given
The source holds these as a separate data set.

For `CC[C@H](C)[C@H](NC(=O)Cn1nc(C)c(/N=N/c2ccccc2)c1C)C(=O)N[C@@H](CO)C(=O)N[C@@H](C)C(=O)O`, the trans-isomer fraction after 520 nm irradiation stood at 87%. Further, in data set [1], the trans-isomer fraction, native state worked out at 85%.
In turn, `CC[C@H](C)[C@H](NC(=O)Cn1nc(C)c(/N=N\c2ccccc2)c1C)C(=O)N[C@@H](CO)C(=O)N[C@@H](C)C(=O)O` registered a cis-isomer fraction after 365 nm irradiation in data set [2] greater than 98%.

Values taken from paper PMC12811659.
